“And” between values parts separate entries of the source, which are not always exact repeats. Equal values may be shown once.
What was measured:
Assay type in all cases: physicochemical
[1] = Physical stability measurements (XRPD, DSC, TGA)
Protocol: Testing conditions: 40° C., 60° C., 40° C./RH 75%, 60° C./RH 75%, light
Testing procedure: About 50 mg of a febuxostat form were weighed in glass vial for testing the physical stability and were stored under different conditions for 1 week and 2 weeks, separately. The same febuxostat form was stored at −20° C. as control. XRPD, DSC and TGA of each of the febuxostat forms were measured at the end of the first and second weeks.

[2] = Hygroscopicity measurements (DVS sorption/desorption profiles); settings: 25° C.
Protocol: The sorption/desorption profiles of the forms of the present invention were tested at 25° C. under 0-90% relative humidity. The forms of the present invention were classified according to the following criteria: Deliquescent: Sufficient water is absorbed to form a liquid. […] Hygroscopic: Increase in mass is less than 15% and equal to or greater than 2%. Slightly hygroscopic: Increase in mass is less than 2% and equal to or greater than 0.2%. Non-hygroscopic: Increase in mass is less than 0.2%.

[3] = Bulk and tapped density measurements
Protocol: Bulk density testing: A febuxostat form in an amount which is sufficient to complete the test was passed through a 1.0 mm (No. 18) screen to break up agglomerates that may have formed during storage. The febuxostat form was then weighed (M) and the powder was added into a 10 mL graduated cylinder. The powder was carefully leveled without compacting, and the unsettled apparent volume, Vo, was read. The bulk density, in g per mL, was calculated by the formula: Bulk Density=M/Vo Tapped density testing: A febuxostat form in an amount which is sufficient to complete the test was passed through a 1.0 mm (No. 18) screen to break up agglomerates that may have formed during storage. The febuxostat form was then weighed and the powder was added into a 10 mL graduated cylinder. The powder was carefully leveled without compacting. The cylinder was tapped 500 times initially and the tapped volume, Va, was measured to the nearest graduated unit. The tapping was then repeated for additional 750 times and the tapped volume, Vb, was measured to the nearest graduated unit. If the difference between the two volumes was less than 2%, Vb was taken as the final tapped volume, Vf. The tapped density, in g per mL, was calculated by the formula: Tapped Density=M/Vf

[4] = Solid stability measurements (appearance, assay and total related substances by HPLC); settings: for Remaining (%): one value for both samples, vs −20° C. control; for Appearance / TRS (%): samples 1 and 2
Protocol: The detailed chromatographic conditions are listed hereinbelow. The typical retention time of febuxostat main peak is 8.2 min. [table] Testing conditions: 40° C., 60° C., 40° C./RH 75%, 60° C./RH 75%, light Testing procedure: About 3 mg of a febuxostat form were weighed in a glass vial and stored under the different conditions for 1 week and 2 weeks, separately. The same febuxostat form was stored at −20° C. as control. The test was conducted in duplication. The physical appearance, assay and total related substances of each of the febuxostat forms were measured by HPLC at the end of the first and second weeks.

For `Cc1nc(-c2ccc(OCC(C)C)c(C#N)c2)sc1C(=O)O` [Form V, 2-(3-cyano-4-isobutoxyphenyl)-4-methyl-5-thiazolecarboxylic acid], the “physical stability (XRPD, DSC, TGA)” value ([1]; 40° C., 60° C. and light at the end of the first and second week) was “stable”, the “physical stability (XRPD, DSC, TGA), form conversion” value (from here on “physical stability … form conversion”) ([1]; 40° C./75% RH at the end of the first week) was “partially converted to form G” and the “physical stability … form conversion” value ([1]; 40° C./75% RH at the end of the second week) was “completely converted to form G”. The “physical stability … form conversion” value ([1]; 60° C./75% RH at the end of the first and second weeks) was “completely converted to form G”, the Hygroscopicity classification ([2]; 0-90% relative humidity) was “very hygroscopic” and the “weight loss after sorption-desorption cycle” value ([2]; DVS, might be attributed to DMSO evaporation at high humidity) was “about 10%”. The “Change in Mass (%) - ref, Desorption” value ([2]; Target % P/P0 0.0) was −9.66%, the “Change in Mass (%) - ref, Sorption” value ([2]; Target % P/P0 0.0) was 0.00% and the “Change in Mass (%) - ref, Desorption” value ([2]; Target % P/P0 10.0) was −8.56%. For the same compound, the “Change in Mass (%) - ref, Hysteresis” value ([2]; Target % P/P0 10.0) was −8.64%, the “Change in Mass (%) - ref, Sorption” value ([2]; Target % P/P0 10.0) was 0.08% and the “Change in Mass (%) - ref, Desorption” value ([2]; Target % P/P0 20.0) was −8.49%. The “Change in Mass (%) - ref, Hysteresis” value ([2]; Target % P/P0 20.0) was −8.60%, the “Change in Mass (%) - ref, Sorption” value ([2]; Target % P/P0 20.0) was 0.12% and the “Change in Mass (%) - ref, Desorption” value ([2]; Target % P/P0 30.0) was −8.40%. The “Change in Mass (%) - ref, Hysteresis” value ([2]; Target % P/P0 30.0) was −8.53%, the “Change in Mass (%) - ref, Sorption” value ([2]; Target % P/P0 30.0) was 0.14% and the “Change in Mass (%) - ref, Desorption” value ([2]; Target % P/P0 40.0) was −8.30%. The “Change in Mass (%) - ref, Hysteresis” value ([2]; Target % P/P0 40.0) was −8.50%, the “Change in Mass (%) - ref, Sorption” value ([2]; Target % P/P0 40.0) was 0.20% and the “Change in Mass (%) - ref, Desorption” value ([2]; Target % P/P0 50.0) was 1.16%. For the same compound, the “Change in Mass (%) - ref, Hysteresis” value ([2]; Target % P/P0 50.0) was 0.93%, the “Change in Mass (%) - ref, Sorption” value ([2]; Target % P/P0 50.0) was 0.23% and the “Change in Mass (%) - ref, Desorption” value ([2]; Target % P/P0 60.0) was 7.34%. The “Change in Mass (%) - ref, Hysteresis” value ([2]; Target % P/P0 60.0) was 7.02%, the “Change in Mass (%) - ref, Sorption” value ([2]; Target % P/P0 60.0) was 0.31% and the “Change in Mass (%) - ref, Desorption” value ([2]; Target % P/P0 70.0) was 14.03%. For the same compound, the “Change in Mass (%) - ref, Hysteresis” value ([2]; Target % P/P0 70.0) was 12.45%, the “Change in Mass (%) - ref, Sorption” value ([2]; Target % P/P0 70.0) was 1.59% and the “Change in Mass (%) - ref, Desorption” value ([2]; Target % P/P0 80.0) was 23.42%. The “Change in Mass (%) - ref, Hysteresis” value ([2]; Target % P/P0 80.0) was 7.98%, the “Change in Mass (%) - ref, Sorption” value ([2]; Target % P/P0 80.0) was 15.44% and the “Change in Mass (%) - ref, Desorption” value ([2]; Target % P/P0 90.0) was 36.92%. The “Change in Mass (%) - ref, Sorption” value ([2]; Target % P/P0 90.0) was 36.92%, the “Bulk Density” value [3] was 0.444 g/mL and the “Tapped Density” value [3] was 0.637 g/mL. The “bulk and tapped densities (in words)” value ([3]; compared among forms V, IX, XI and form G) was “adequate bulk and tapped densities”, the “change of assay and TRS (in words)” value ([4]; 40° C., 60° C., 40° C./75% RH, 60° C./75% RH at end of the first and second weeks) was “no significant change” and the “Remaining (%)” value ([4]; 40° C., 7 d) was 100.62%. The Appearance ([4]; 40° C., 7 d) was “No change”, the “TRS (%)” value ([4]; 40° C., 7 d) was 0.45% and the “Remaining (%)” value ([4]; 40° C., 14 d) was 100.01%. For the same compound, the Appearance ([4]; 40° C., 14 d) was “No change”, the “TRS (%)” value ([4]; 40° C., 14 d) was 0.46% and 0.47% and the “Remaining (%)” value ([4]; 40° C./75% RH, 7 d) was 99.40%. The Appearance ([4]; 40° C./75% RH, 7 d) was “No change”, the “TRS (%)” value ([4]; 40° C./75% RH, 7 d) was 0.47% and 0.48% and the “Remaining (%)” value ([4]; 40° C./75% RH, 14 d) was 99.03%. For the same compound, the Appearance ([4]; 40° C./75% RH, 14 d) was “No change”, the “TRS (%)” value ([4]; 40° C./75% RH, 14 d) was 0.50% and 0.52% and the “Remaining (%)” value ([4]; 60° C., 7 d) was 100.65%. For the same compound, the Appearance ([4]; 60° C., 7 d) was “No change”, the “TRS (%)” value ([4]; 60° C., 7 d) was 0.53% and 0.51% and the “Remaining (%)” value ([4]; 60° C., 14 d) was 100.06%. For the same compound, the Appearance ([4]; 60° C., 14 d) was “No change”, the “TRS (%)” value ([4]; 60° C., 14 d) was 0.54% and 0.53% and the “Remaining (%)” value ([4]; 60° C./75% RH, 7 d) was 98.20%. The Appearance ([4]; 60° C./75% RH, 7 d) was “No change”, the “TRS (%)” value ([4]; 60° C./75% RH, 7 d) was 0.51% and 0.52% and the “Remaining (%)” value ([4]; 60° C./75% RH, 14 d) was 98.87%. For the same compound, the Appearance ([4]; 60° C./75% RH, 14 d) was “No change”, the “TRS (%)” value ([4]; 60° C./75% RH, 14 d) was 0.52% and 0.53% and the “Remaining (%)” value ([4]; Light, 7 d) was 97.74%. For the same compound, the Appearance ([4]; Light, 7 d) was “Light yellow”, the “TRS (%)” value ([4]; Light, 7 d) was 1.02% and 1.18% and the “Remaining (%)” value ([4]; Light, 14 d) was 94.06%. For the same compound, the Appearance ([4]; Light, 14 d) was “Light yellow”, the “TRS (%)” value ([4]; Light, 14 d) was 5.99% and 5.08% and the Appearance ([4]; −20° C. (control), 7 d) was “No change”. For the same compound, the “TRS (%)” value ([4]; −20° C. (control), 7 d) was 0.40% and 0.39%, the Appearance ([4]; −20° C. (control), 14 d) was “No change” and the “TRS (%)” value ([4]; −20° C. (control), 14 d) was 0.42% and 0.41%.

Source: patent publication US20130225830A1, “POLYMORPHS OF FEBUXOSTAT” (MAPI PHARMA LIMITED, priority 2010, published 2013)
